{"source": "paper PMC12352625", "about": "“Double crossed? Structural and computational studies of an unusually crosslinked haem in Methylococcus capsulatus cytochrome P460” (Chemical Science, 2025)", "target": "T1, McP460 (cytochrome P460 from Methylococcus capsulatus (Bath)) (Methylococcus capsulatus, UniProt G1UBD9)", "T1 construct": "gene MCA0524; recombinant from E. coli; covalent c-type P460 haem (Cys140, Cys143, His144, Lys78)", "T1 sequence (G1UBD9 18-161)": "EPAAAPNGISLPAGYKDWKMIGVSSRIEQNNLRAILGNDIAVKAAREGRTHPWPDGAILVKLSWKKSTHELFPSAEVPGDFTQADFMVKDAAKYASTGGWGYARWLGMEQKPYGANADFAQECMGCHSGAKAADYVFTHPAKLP", "experiment": "DCPIP reduction assay; N2O by GC-MS; nitrite by Griess assay", "assay_type": "biochemical", "settings": "5 uM enzyme, 6 uM PMS, 2 mM [Ru(NH3)6]Cl3, 0-1000 uM hydroxylamine for product assays; anaerobic or aerobic"}
{"smiles": "NO", "note": "[hydroxylamine]", "values": [{"measurement": "DCPIP reduction assay; N2O by GC-MS; nitrite by Griess assay", "result": "assays were carried out to assess the protein's ability to oxidise hydroxylamine, and product formation"}]}
